The record followed here is patent publication US20240316079A1, “USE OF AKR1C3-ACTIVATED COMPOUND” (OBI PHARMA, INC., priority 2021, published 2024).

For orientation: IC50 means the midpoint of a concentration-inhibition curve.

One series deals with HLF. As to the kind of experiment: In vitro proliferation assay, liver cancer cell line HLF. It counts as cell-based. The settings on record: Homo sapiens, 96 hours of drug exposure, AKR1C3 protein Low, read-out: 3424 IC50. The procedure:
(§1) IC50 was calculated as described above.

A further series has as its system LU2505 PDX. As to the kind of experiment: Lung cancer PDX model LU2505 (higher AKR1C3). It counts as in vivo, mice. The protocol: Anti-tumor activity of 3424 in PDX models was assessed at CrownBio Bioscience (Beijing, China) Inc. using female BALB/c nude mice (6-7 weeks old, Beijing Anikeeper Biotech Co., Ltd, Beijing, China). Tumor fragments (PA1280, GA6201, LU2057 and LU2505) from stock mice inoculated with selected primary human cancer tissues (pancreatic, gastric cancer, and lung) were harvested and used for inoculation into BALB/c nude mice. Each mouse was inoculated subcutaneously for tumor development. Mice were allocated randomly into experimental groups when the average tumor size reached ˜100 mm^3) by using StudyDirector™ Ver 3.1.399.19 (Studylog Systems, Inc., S. San Francisco, CA, USA). Prodrug 3424 was administered IV at the indicated doses with a regimen of Q7D×3. Each group consisted of 5-6 mice. The grouping day was denoted as Day 0. Prodrug 3424 was administrated to the tumor-bearing mice from Day 0 through Days as indicated for each study.

For another series, the system named is NCI-H23. As to the kind of experiment: In vitro proliferation assay, NSCLC cell line NCI-H23. The class given is cell-based. The following applies: Homo sapiens, 72 hours of drug exposure, read-out: 3424 IC50. The procedure:
as §1

In the next series the test system is NCIH2106. As to the kind of experiment: In vitro proliferation assay, NSCLC cell line NCIH2106. It counts as cell-based. The settings on record: Homo sapiens, 72 hours of drug exposure, read-out: 3424 IC50. The procedure: as §1
The next series has as its system HuCCT1. As to the kind of experiment: In vitro proliferation assay, liver cancer cell line HuCCT1. The settings on record: Homo sapiens, HuCCT-1, 96 hours of drug exposure, AKR1C3 protein Low, read-out: 3424 IC50. The class given is cell-based. The procedure: as §1
The test system of the next series is SNU-387. Description: In vitro proliferation assay, liver cancer cell line SNU-387. The class given is cell-based. The following applies: Homo sapiens, 96 hours of drug exposure, AKR1C3 protein Medium, read-out: 3424 IC50. The protocol:
as §1

As to `C[C@H](OP(=O)(N1CC1)N1CC1)c1ccc([N+](=O)[O-])c(Oc2cccc(C(=O)N(C)C)c2)c1` [Compound 3424, (S)-1-(3-(3-N,N-dimethylaminocarbonyl)phenoxyl-4-mtrophenyl)-1-ethyl-N,N′-bis(ethylene)phosphoramidate], the IC50 was above 1000 nM in the series on HLF; above 1000 nM in the series with NCI-H23; above 1000 nM in the series on NCIH2106; 696 nM with HuCCT1; 103 nM in the series with SNU-387. Besides, the TGI in the series with LU2505 PDX (3424 1.25 mg/kg i.v. Q7D × 3) worked out at 105.0%; in the series on LU2505 PDX (3424 2.5 mg/kg i.v. Q7D × 3), 105.2%; with LU2505 PDX (3424 5 mg/kg i.v. Q7D × 3), 105.2%. For the same compound, in the series on LU2505 PDX (LU2505, all tested doses), the “tolerability / body weight loss” value is recorded as “no body weight loss”.
